Test results as given in patent US20230183237A1, “COMPETITIVE AND NONCOMPETITIVE INHIBITORS OF THE MUSCARINIC ACETYLCHOLINE RECEPTOR M5” (Vanderbilt University, priority 2020, published 2023).
Like-named read-outs stand apart in the source and are kept apart here.

Target: T1, hM5 (Homo sapiens, UniProt P08912)
T1 construct: expressed in transfected cells
T1 sequence (P08912 1-532): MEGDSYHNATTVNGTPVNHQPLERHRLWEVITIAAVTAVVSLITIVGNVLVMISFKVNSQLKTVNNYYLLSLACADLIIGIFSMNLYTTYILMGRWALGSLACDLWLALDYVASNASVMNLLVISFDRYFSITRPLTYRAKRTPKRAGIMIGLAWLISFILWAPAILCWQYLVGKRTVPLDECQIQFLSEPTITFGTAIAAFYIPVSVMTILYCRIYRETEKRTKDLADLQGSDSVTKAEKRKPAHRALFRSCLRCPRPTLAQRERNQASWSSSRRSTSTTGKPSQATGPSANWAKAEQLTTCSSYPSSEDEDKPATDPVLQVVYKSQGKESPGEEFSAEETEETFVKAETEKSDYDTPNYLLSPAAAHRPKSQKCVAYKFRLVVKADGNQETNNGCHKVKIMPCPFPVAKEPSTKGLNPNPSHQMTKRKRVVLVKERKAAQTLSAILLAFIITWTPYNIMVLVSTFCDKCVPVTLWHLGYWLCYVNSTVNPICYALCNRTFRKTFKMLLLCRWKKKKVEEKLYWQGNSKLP
Assay: Calcium mobilization concentration-response (IC50 vs EC80 acetylcholine), CHO hM5
Format: cell-based
Details: CELL LINE hM5, read-out: IC50
Procedure, shortened: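 IC50 values derive from percent maximal acetylcholine response after an EC80 ACh addition, measured as kinetic calcium fluorescence (static ratio, max−min). Test compounds were added 140 s before agonist. Cells: stable hM5-CHO in HEPES-buffered HBSS with 2.5 mM probenecid, pH 7.4; ≥3 independent triplicate determinations.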

[1] = calcium mobilization, EC80 acetylcholine addition

| IC50 (vs EC80 acetylcholine) [nM] | IC50 [1] [nM] | Compound |
| --- | --- | --- |
| 172 | – | O=S(=O)(c1cnc(Cl)s1)N1CCC(c2cn3ncnc3cc2Cl)CC1 [Compound 532, 2-chloro-5-((4-(7-chloro-[1,2,4]triazoto[1,5-a]pyridin-6-yl)piperidin-1-yl)sulfonyl)thiazole] |
| – | 6 | Cc1cc2ncnn2cc1C1CCN(S(=O)(=O)c2cnn3c2CCCC3)CC1 [Compound 238, 7-methyl-6-(1-((4,5,6,7-tetrahydropyrazolo[1,5-a]pyridin-3-yl)sulfonyl)piperidin-4-yl)-[1,2,4]triazolo[1,5-a]pyridine] |
| – | 325 | Cc1cc2ncnn2cc1C1CCN(S(=O)(=O)c2c3ccccc3nn2C)CC1 [Compound 150, 7-methyl-6-(1-((2-methyl-2H-indazol-3-yl)sulfonyl)piperidin-4-yl)-[1,2,4]triazolo[1,5-a]pyridine] |
| 43 | – | [2H]C1([2H])CC(c2cn3ncnc3cc2Cl)CC([2H])([2H])N1S(=O)(=O)c1cnn(C)c1CC#N [Compound 621, 2-(4-((4-(7-chloro-[1,2,4]triazolo[1,5-a]pyridin-6-yl)piperidin-1-yl-2,2,6,6-d4)sulfonyl)-1-methyl-1H-pyrazol-5-yl)acetonitrile] |
| 204 | – | Cn1ncc(S(=O)(=O)N2CCC(c3cn4ncnc4cc3C(F)(F)F)CC2)c1CC#N [Compound 410, 2-(1-methyl-4-((4-(7-(trifluoromethyl)-[1,2,4]triazolo[1,5-a]pyridin-6-yl)piperidin-1-yl)sulfonyl)-1H-pyrazol-5-yl)acetonitrile] |
| 68 | – | O=S(=O)(c1cnc2sccn12)N1CCC(c2cn3ncnc3cc2C(F)(F)F)CC1 [Compound 518, 5-((4-(7-(trifluoromethyl)-[1,2,4]triazolo[1,5-a]pyridin-6-yl)piperidin-1-yl)sulfonyl)imidazo[2,1-b]thiazole] |
| 6 | – | Cc1cc(S(=O)(=O)N2CCC(c3cn4ncnc4cc3Cl)CC2)sn1 [Compound 483, 5-((4-(7-chloro-[1,2,4]triazolo[1,5-a]pyridin-6-yl)piperidin-1-yl)sulfonyl)-3-methylisothiazole] |
| – | 36 | Cc1c(S(=O)(=O)N2CCC(c3cn4ncnc4cc3Cl)CC2)cnn1C [Compound 291, 7-chloro-6-(1-((1,5-dimethyl-1-pyrazol-4-yl)sulfonyl)piperidin-4-yl)-[1,2,4]triazolo[1,5-a]pyridine] |
| 234 | – | Cn1cc(S(=O)(=O)N2CCC(c3cn4ncnc4cc3C(F)(F)F)CC2)nn1 [Compound 563, 6-(1-((1-methyl-1H-1,2,3-triazol-4-yl)sulfonyl)piperidin-4-yl)-7-(trifluoromethyl)-[1,2,4]triazolo[1,5-a]pyridine] |
| – | 52 | Cn1ncc(S(=O)(=O)N2CCC(c3cn4ncnc4cc3Cl)CC2)c1C(F)(F)F [Compound 330, 7-chloro-6-(1-((1-methyl-5-(trifluoromethyl)-1H-pyrazol-4-yl)sulfonyl)piperidin-4-yl)-[1,2,4]triazolo[1,5-a]pyridine] |
| > 10000 | – | Cc1cc2ncnn2cc1C1(F)CCN(S(=O)(=O)c2cnn(C)c2CC#N)CC1 [Compound 457, 2-(4-((4-fluoro-4-(7-methyl-[1,2,4]triazolo[1,5-a]pyridin-6-yl)piperidin-1-yl)sulfonyl)-1-methyl-1H-pyrazol-5-yl)acetonitrile] |

Further lines, the molecule ahead of its results:

| Compound | IC50 (vs EC80 acetylcholine) [nM] | IC50 [1] [nM] |
| --- | --- | --- |
| CCc1cc2ncnn2cc1C1=CCN(S(=O)(=O)c2cnn(C)c2C)CC1 [Compound 194, 6-(1-((1,5-dimethyl-1H-pyrazol-4-yl)sulfonyl)-1,2,3,6-tetrahydropyridin-4-yl)-7-ethyl-[1,2,4]triazolo[1,5-a]pyridine] | – | 55 |
| [2H]C1([2H])Oc2cc(C)c(C3CCN(S(=O)(=O)c4cnc(C)n4C)CC3)cc2OC1([2H])[2H] [Compound 391, 1-((1,2-dimethyl-1H-imidazol-5-yl)sulfonyl)-4-(7-methyl-2,3-dihydrobenzo[b][1,4]dioxin-6-yl-2,2,3,3-d4)piperidine] | – | 636 |
| Cc1c(C2CCN(S(=O)(=O)c3cnc(Cl)s3)CC2)cn2ncnc2c1F [Compound 534, 2-chloro-5-((4-(8-fluoro-7-methyl-[1,2,4]triazolo[1,5-a]pyridin-6-yl)piperidin-1-yl)sulfonyl)thiazole] | 1650 | – |
| Cc1cc2ncnn2cc1C1=CCN(S(=O)(=O)c2ccc3c(c2)C(C)CO3)CC1 (centres unmarked) [Compound 65, 7-Methyl-6-(1-((3-methyl-2,3-dihydrobenzofuran-5-yl)sulfonyl)-1,2,3,6-tetrahydropyridin-4-yl)[1,2,4]triazolo[1,5-a]pyridine] | – | 384 |
| COc1cc2ncnn2cc1C1CCN(S(=O)(=O)c2cc3c(cc2C)OCC3C)CC1 (centres unmarked) [Compound 88, 6-(1-((3,6-dimethyl-2,3-dihydrobenzofuran-5-yl)sulfonyl)piperidin-4-yl)-7-methoxy-[1,2,4]triazolo[1,5-a]pyridine] | – | 804 |
| O=S(=O)(c1ccc2ncsc2c1)N1CCC(c2nc3cccnc3s2)CC1 [Compound 11, 2-(1-(benzo[d]thiazol-6-ylsulfonyl)piperidin-4-yl)thiazolo[5,4-b]pyridine] | – | > 10000 |
| Cc1cc(S(=O)(=O)N2CCC(c3nn4ccnc4cc3C)CC2)c(C)s1 [Compound 311, 6-(1-((2,5-dimethylthiophen-3-yl)sulfonyl)piperidin-4-yl)-7-methylimidazo[1,2-b]pyridazine] | – | 4900 |
| Cc1cc2ncnn2nc1C1CCN(S(=O)(=O)c2cnn3ccccc23)CC1 [Compound 546, 7-methyl-6-(1-(pyrazolo[1,5-a]pyridin-3-ylsulfonyl)piperidin-4-yl)-[1,2,4]triazolo[1,5-b]pyridazine] | 534 | – |
| Cc1cc2ncnn2cc1C1(F)CCN(S(=O)(=O)c2cnn3c2CCC3)CC1 [Compound 420, 6-(1-((5,6-dihydro-4H-pyrrolo[1,2-b]pyrazol-3-yl)sulfonyl)-4-fluoropiperidin-4-yl)-7-methyl-[1,2,4]triazolo[1,5-a]pyridine] | 39 | – |
| Cc1cc2ncnn2cc1C1CCN(S(=O)(=O)c2ccccc2-c2ccno2)CC1 [Compound 96, 5-(2-((4-(7-methyl-[1,2,4]triazolo[1,5-a]pyridin-6-yl)piperidin-1-yl)sulfonyl)phenyl)isoxazole] | – | > 10000 |
| Cc1c(C2CCN(S(=O)(=O)c3cnc(C)n3C)CC2)cn2ncnc2c1F [Compound 304, 6-(1-((1,2-dimethyl-1H-imidazol-5-yl)sulfonyl)piperidin-4-yl)-8-fluoro-7-methyl-[1,2,4]triazolo[1,5-a]pyridine] | – | 43 |
| O=S(=O)(c1ccc2c(c1)CCO2)N1CCC(c2cc3cc[nH]c3nn2)CC1 [Compound 21, 3-(1-((2,3-dihydrobenzofuran-5-yl)sulfonyl)piperidin-4-yl)-7H-pyrrolo[2,3-c]pyridazine] | – | 2200 |
| [2H]C1([2H])Oc2ccc(S(=O)(=O)N3CCC(c4cn5nc(C)nc5cc4C)CC3)cc2C1([2H])[2H] [Compound 91, 6-(1-((2,3-dihydrobenzofuran-5-yl-2,2,3,3-d4)sulfonyl)piperidin-4-yl)-2,7-dimethyl-[1,2,4]triazolo[1,5-a]pyridine] | – | > 10000 |
| COc1c(S(=O)(=O)N2CCC(F)(c3cn4ncnc4cc3C)CC2)cnn1C [Compound 586, 6-(4-fluoro-1-((5-methoxy-1-methyl-1H-pyrazol-4-yl)sulfonyl)piperidin-4-yl)-7-methyl-[1,2,4]triazolo[1,5-a]pyridine] | 147 | – |
| Cc1nc2cc(C)c(C3CCN(S(=O)(=O)c4ccc5ncsc5c4)CC3)cn2n1 [Compound 78, 6-((4-(2,7-dimethyl-[1,2,4]triazolo[1,5-a]pyridin-6-yl)piperidin-1-yl)sulfonyl)benzo[d]thiazole] | – | > 10000 |
| Cc1c(S(=O)(=O)N2CC=C(c3cc4c(cc3Cl)N(C)CCO4)CC2)cnn1C [Compound 376, 6-chloro-7-(1-((1,5-dimethyl-1H-pyrazol-4-yl)sulfonyl)-1,2,3,6-tetrahydropyridin-4-yl)-4-methyl-3,4-dihydro-2H-benzo[b][1,4]oxazine] | – | 1450 |
| Cc1cc2c(cc1C1CCN(S(=O)(=O)c3cnn(C)c3Cl)CC1)OCO2 [Compound 372, 1-((5-chloro-1-methyl-1H-pyrazol-4-yl)sulfonyl)-4-(6-methylbenzo[d][1,3]dioxol-5-yl)piperidine] | – | 14 |
| O=S(=O)(c1ccc2ncsc2c1)N1CCC(c2cc3cc[nH]c3nn2)CC1 [Compound 22, 6-((4-(7H-pyrrolo[2,3-c]pyridazin-3-yl)piperidin-1-yl)sulfonyl)benzo[d]thiazole] | – | 2600 |
| Cc1cc2ncnn2cc1C1CCN(S(=O)(=O)c2cnn(C)c2Cl)C(C)C1 (centres unmarked) [Compound 361, 6-(1-((5-chloro-1-methyl-1H-pyrazol-4-yl)sulfonyl)-2-methylpiperidin-4-yl)-7-methyl-[1,2,4]triazolo[1,5-a]pyridine] | – | 1470 |
| Cn1cnc2cc(C3CCN(S(=O)(=O)c4ccc5c(c4)CCO5)CC3)ccc21 [Compound 7, 5-(1-((2,3-dihydrobenzofuran-5-yl)sulfonyl)piperidin-4-yl)-1-methyl-1H-benzo[d]imidazole] | – | > 10000 |
| Cc1cc2nccn2nc1C1CCN(S(=O)(=O)c2ccc3c(c2)N(C)CCO3)CC1 [Compound 250, 4-methyl-6-((4-(7-methylimidazo[1,2-b]pyridazin-6-yl)piperidin-1-yl)sulfonyl)-3,4-dihydro-2H-benzo[b][1,4]oxazine] | – | 1500 |
